Test results published in patent publication US20250114294A1, “COMPOSITIONS SUITABLE FOR USE IN SKIN CARE” (Johnson & Johnson Consumer Inc., priority 2023, published 2025).

Legend:
Type in all cases: cell-based, human
[1] = test system: cellular retinoic acid binding protein 2 (CRABP2); experiment: CRABP2 gene expression (TaqMan qPCR) in EpiDerm Full Thickness skin equivalents; conditions: EFT-400 skin equivalents, 4 μL topical, 24 hours, normalized to POLR2A, vs PgETOH vehicle
Procedure: (§1) EpiDerm Full Thickness Skin 3D Equivalents (EFT-400) were purchased from MatTek Corporation (Ashland, MA 01721; lot number 34272, kit N & kit P). Upon receipt the skin equivalents were transferred in new 6-well plates (MatTek Corporation, Ashland, MA 01721) with 2.5 mL of EFT-400 medium (MatTek Corportion, Ashland, MA) and equilibrated overnight.
(§2) The following day, skin equivalents were treated topically with 4 μL of the following treatments: Vehicle, 0.04% Retinol, 0.04% Retinol +0.05% Myrrh resin extract, or 0.04% Retinol +0.1% Myrrh resin extract.
(§3) Propylene glycol/ethanol (PgETOH) (3:7) (w/w) was used as a vehicle. Retinol (BASF 50C) was diluted in PgETOH to a stock concentration of 0.4%. 0.4% Retinol was further diluted to make 0.08% Retinol. Since Retinol is 50% active, the percent active Retinol in the final treatment solution was 0.04% Retinol. Myrrh resin extract (Firmenich) was weighed out to 16.1 mg and diluted in 1.6 mL of PgETOH for a 1% Myrrh resin extract stock solution.
(§4) To make the 0.04% Retinol+0.1% Myrrh resin extract treatment solution combine 100 μL of the 0.4% retinol stock solution, 50 μL of the 1% Myrrh resin extract stock solution, and 350 μL of PgETOH. […]
(§5) The fold changes were calculated in comparison to the vehicle control and two-tailed two-sample Student t-tests (Microsoft Office Excel 2007; Microsoft, Redmond, WA, USA) were performed. […]

[2] = test system: interleukin-8 (IL8); experiment: IL8 gene expression (TaqMan qPCR) in EpiDerm Full Thickness skin equivalents; conditions: EFT-400 skin equivalents, 4 μL topical, 24 hours, normalized to POLR2A, vs PgETOH vehicle; irritation marker
Procedure: as §1, §2, §3, §4, §5

[3] = test system: aquaporin-3 (AQP3); experiment: AQP3 gene expression (TaqMan qPCR) in EpiDerm Full Thickness skin equivalents; conditions: EFT-400 skin equivalents, 4 μL topical, 24 hours, normalized to POLR2A, vs PgETOH vehicle
Procedure: as §1, §2, §3, §4, §5

CC1=C(/C=C/C(C)=C/C=C/C(C)=C/CO)C(C)(C)CCC1 [Sample 2, Retinol]
CRABP2 Average fold change over untreated [1]: 2.22
IL8 Average fold change over untreated [2]: 1.22
AQP3 Average fold change over untreated [3]: 1.82
